Test results published in publication PMC9329436, “Optimization of the 4-anilinoquin(az)oline scaffold as epidermal growth factor receptor (EGFR) inhibitors for chordoma utilizing a toxicology profiling assay platform” (Scientific Reports, 2022).

Key:
Assay in all cases: 33PanQinase activity assay
Type in all cases: biochemical
Aurora-B = Aurora-B (Homo sapiens, UniProt Q96GD4); conditions: for Residual activity: Aurora-B, singlicate
Excerpt: (§1) Table S4. Profiling of two compounds at two concentrations against 320 wild-type protein kinases; singlicate measurement; Residual activities (% of control).

MAP4K5 = MAP4K5 (Homo sapiens, UniProt Q9Y4K4); conditions: for Residual activity: singlicate
Excerpt: as §1

RIPK2 = RIPK2 (Homo sapiens, UniProt O43353); conditions: for Residual activity, RIPK2: kinase RIPK2, singlicate
Excerpt: as §1

PIM1 = PIM1 (Homo sapiens, UniProt P11309); conditions: for Residual activity: singlicate
Excerpt: as §1

DDR2 = biological target: T1, DDR2 (Homo sapiens, UniProt Q16832); conditions: for Residual activity: singlicate
T1 sequence (Q16832 22-855): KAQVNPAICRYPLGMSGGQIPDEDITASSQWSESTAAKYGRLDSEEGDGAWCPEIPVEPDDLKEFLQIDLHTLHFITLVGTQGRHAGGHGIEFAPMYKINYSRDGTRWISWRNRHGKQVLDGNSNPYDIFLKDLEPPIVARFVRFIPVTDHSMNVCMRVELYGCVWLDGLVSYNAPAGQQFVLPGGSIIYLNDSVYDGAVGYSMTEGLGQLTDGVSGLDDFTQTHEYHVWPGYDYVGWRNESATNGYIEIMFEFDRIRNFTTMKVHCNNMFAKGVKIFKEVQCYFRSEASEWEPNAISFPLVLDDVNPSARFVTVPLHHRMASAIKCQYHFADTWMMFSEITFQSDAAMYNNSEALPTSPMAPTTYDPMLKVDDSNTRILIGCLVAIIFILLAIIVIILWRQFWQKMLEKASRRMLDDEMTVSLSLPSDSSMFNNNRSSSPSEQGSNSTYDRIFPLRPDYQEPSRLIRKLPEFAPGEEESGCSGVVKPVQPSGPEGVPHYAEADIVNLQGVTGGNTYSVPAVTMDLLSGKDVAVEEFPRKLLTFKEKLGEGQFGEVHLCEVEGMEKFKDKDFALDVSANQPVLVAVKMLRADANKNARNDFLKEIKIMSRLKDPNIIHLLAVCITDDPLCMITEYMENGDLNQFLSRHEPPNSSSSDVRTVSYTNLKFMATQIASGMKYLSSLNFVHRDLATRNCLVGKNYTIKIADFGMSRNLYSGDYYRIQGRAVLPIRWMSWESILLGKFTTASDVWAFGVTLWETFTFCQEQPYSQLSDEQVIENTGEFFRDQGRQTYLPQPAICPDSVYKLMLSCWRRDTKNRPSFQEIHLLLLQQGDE
Excerpt: as §1

MAP4K4 = MAP4K4 (Homo sapiens, UniProt O95819); conditions: for MAP4K4 inhibition: 10 μM; for Residual activity: singlicate
Excerpt: as §1

EPHB2 = biological target: T2, EPHB2 (Homo sapiens, UniProt P29323); conditions: for Residual activity: singlicate
T2 sequence (P29323 19-1055): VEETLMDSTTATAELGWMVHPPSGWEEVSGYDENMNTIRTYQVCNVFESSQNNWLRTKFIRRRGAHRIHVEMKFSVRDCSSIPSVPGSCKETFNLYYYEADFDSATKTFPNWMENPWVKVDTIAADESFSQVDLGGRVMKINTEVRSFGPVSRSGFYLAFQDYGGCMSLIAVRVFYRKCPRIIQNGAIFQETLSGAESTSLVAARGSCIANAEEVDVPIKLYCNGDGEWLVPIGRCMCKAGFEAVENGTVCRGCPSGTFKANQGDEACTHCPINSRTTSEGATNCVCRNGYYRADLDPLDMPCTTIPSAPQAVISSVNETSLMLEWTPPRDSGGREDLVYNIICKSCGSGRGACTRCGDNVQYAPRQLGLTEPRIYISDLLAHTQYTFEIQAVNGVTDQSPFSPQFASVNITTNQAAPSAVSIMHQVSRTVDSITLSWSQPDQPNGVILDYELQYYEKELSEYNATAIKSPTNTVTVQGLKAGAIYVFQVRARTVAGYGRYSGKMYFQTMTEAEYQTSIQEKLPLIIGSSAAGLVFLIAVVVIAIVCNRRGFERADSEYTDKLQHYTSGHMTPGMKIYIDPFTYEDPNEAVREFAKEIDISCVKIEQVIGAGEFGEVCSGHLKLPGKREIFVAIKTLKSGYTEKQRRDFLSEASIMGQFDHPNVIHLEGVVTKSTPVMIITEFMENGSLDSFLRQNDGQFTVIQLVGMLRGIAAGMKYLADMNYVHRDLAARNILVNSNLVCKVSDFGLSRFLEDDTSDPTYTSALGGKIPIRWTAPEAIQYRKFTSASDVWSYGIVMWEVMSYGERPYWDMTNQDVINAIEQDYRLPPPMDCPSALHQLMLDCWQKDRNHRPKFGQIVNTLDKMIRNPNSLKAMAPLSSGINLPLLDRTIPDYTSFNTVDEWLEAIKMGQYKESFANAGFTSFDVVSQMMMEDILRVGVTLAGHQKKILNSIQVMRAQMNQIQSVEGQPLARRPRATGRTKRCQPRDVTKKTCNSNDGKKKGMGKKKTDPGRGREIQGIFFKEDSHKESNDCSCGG
Excerpt: as §1

MKNK1 = MKNK1 (Homo sapiens, UniProt Q9BUB5); conditions: for Residual activity: singlicate
Excerpt: as §1

NIK = NIK (Homo sapiens, UniProt Q99558); conditions: for Residual activity: NIK, singlicate
Excerpt: as §1

ERBB2 = ERBB2 (Homo sapiens, UniProt P04626); conditions: for Residual activity: singlicate
Excerpt: as §1

MKNK2 = MKNK2 (Homo sapiens, UniProt Q9HBH9); conditions: for Residual activity: singlicate
Excerpt: as §1

PIM1, sequence (P11309 whole entry): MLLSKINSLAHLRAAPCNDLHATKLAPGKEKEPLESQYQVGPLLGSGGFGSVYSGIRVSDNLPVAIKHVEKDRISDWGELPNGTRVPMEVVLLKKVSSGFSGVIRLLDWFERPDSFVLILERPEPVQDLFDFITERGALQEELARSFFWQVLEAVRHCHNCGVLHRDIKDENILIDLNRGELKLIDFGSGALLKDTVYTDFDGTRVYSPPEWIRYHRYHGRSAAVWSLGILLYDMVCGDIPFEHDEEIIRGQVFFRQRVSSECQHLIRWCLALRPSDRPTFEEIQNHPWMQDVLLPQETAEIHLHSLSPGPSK
RIPK2, sequence (O43353 whole entry): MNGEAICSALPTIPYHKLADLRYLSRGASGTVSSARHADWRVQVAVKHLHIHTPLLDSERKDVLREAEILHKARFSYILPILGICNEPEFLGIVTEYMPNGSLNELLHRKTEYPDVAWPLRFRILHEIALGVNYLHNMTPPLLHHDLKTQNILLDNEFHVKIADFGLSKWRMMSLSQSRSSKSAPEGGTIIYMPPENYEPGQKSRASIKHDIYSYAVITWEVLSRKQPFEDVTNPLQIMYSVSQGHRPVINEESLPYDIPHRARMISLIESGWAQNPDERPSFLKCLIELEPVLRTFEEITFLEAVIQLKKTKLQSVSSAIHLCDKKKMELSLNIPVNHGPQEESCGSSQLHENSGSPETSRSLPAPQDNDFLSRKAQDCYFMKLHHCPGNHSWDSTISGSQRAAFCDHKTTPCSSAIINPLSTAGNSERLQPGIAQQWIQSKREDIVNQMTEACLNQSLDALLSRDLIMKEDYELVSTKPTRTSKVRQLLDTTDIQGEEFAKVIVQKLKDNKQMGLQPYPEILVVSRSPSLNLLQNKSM
Aurora-B, sequence (Q96GD4 whole entry): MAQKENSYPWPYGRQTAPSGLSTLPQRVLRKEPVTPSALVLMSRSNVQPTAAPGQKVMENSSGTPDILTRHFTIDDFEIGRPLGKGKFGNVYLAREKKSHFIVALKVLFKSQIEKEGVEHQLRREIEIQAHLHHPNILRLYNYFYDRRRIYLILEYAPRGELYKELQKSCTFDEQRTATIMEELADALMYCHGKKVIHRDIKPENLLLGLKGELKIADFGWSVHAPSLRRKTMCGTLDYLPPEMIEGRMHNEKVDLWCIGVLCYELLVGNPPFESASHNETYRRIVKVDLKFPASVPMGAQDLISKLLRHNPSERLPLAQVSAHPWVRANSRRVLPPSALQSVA
MKNK2, sequence (Q9HBH9 whole entry): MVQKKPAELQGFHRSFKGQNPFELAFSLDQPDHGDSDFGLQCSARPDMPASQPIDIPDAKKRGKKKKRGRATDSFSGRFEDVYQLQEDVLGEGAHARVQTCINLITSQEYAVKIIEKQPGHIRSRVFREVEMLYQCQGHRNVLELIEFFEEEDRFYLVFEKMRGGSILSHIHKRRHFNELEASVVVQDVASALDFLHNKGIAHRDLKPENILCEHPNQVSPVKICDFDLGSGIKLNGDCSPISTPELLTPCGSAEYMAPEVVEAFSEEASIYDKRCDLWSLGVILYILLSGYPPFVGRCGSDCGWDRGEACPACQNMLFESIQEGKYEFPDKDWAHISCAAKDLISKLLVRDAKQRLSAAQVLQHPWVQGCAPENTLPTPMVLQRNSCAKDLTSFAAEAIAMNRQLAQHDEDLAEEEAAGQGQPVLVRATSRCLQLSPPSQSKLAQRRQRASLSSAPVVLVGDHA
MAP4K5, sequence (Q9Y4K4 whole entry): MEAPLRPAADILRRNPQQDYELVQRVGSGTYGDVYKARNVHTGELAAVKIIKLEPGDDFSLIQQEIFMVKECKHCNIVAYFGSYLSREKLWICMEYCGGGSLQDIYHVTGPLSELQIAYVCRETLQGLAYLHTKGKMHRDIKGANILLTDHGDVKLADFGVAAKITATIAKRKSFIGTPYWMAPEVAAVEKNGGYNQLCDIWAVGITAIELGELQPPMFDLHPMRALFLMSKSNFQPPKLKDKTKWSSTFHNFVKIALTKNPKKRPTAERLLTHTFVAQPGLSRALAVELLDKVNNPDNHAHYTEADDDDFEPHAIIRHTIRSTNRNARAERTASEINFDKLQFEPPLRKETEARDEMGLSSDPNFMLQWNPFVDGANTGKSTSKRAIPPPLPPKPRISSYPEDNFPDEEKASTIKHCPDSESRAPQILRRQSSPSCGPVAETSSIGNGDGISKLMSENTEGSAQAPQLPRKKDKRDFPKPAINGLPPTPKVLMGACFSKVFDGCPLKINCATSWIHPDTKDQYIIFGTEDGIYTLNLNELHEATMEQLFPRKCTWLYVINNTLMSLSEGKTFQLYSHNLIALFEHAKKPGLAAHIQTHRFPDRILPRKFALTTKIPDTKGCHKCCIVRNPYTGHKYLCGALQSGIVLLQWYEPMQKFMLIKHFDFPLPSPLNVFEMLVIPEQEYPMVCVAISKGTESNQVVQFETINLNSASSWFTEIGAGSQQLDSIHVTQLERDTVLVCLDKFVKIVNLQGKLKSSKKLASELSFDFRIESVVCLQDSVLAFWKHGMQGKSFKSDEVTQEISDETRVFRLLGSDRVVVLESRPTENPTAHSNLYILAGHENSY
NIK, sequence (Q99558 whole entry): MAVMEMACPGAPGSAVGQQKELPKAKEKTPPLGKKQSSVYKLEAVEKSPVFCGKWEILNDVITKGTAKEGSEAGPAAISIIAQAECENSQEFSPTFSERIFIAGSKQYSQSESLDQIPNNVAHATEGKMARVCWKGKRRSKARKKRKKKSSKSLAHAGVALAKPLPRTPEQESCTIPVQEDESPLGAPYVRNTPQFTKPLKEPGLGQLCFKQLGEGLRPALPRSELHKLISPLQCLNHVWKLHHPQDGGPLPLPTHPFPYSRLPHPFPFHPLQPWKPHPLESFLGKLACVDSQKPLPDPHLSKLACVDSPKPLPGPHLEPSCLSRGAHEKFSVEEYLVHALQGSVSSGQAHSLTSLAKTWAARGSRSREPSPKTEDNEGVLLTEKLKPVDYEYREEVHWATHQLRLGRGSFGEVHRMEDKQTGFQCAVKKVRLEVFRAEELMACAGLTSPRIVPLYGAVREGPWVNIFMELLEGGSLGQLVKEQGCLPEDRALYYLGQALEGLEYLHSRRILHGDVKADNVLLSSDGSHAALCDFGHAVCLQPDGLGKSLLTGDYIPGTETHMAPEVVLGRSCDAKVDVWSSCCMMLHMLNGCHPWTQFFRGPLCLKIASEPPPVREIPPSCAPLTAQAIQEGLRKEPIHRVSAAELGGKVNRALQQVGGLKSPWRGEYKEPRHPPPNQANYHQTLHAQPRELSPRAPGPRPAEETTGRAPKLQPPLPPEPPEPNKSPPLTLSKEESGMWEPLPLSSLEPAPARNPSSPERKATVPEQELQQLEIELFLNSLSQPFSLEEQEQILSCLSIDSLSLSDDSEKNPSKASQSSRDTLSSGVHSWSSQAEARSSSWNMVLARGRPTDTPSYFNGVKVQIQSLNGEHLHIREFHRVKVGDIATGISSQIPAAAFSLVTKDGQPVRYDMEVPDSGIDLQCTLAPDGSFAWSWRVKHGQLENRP
ERBB2, sequence (P04626 23-1255): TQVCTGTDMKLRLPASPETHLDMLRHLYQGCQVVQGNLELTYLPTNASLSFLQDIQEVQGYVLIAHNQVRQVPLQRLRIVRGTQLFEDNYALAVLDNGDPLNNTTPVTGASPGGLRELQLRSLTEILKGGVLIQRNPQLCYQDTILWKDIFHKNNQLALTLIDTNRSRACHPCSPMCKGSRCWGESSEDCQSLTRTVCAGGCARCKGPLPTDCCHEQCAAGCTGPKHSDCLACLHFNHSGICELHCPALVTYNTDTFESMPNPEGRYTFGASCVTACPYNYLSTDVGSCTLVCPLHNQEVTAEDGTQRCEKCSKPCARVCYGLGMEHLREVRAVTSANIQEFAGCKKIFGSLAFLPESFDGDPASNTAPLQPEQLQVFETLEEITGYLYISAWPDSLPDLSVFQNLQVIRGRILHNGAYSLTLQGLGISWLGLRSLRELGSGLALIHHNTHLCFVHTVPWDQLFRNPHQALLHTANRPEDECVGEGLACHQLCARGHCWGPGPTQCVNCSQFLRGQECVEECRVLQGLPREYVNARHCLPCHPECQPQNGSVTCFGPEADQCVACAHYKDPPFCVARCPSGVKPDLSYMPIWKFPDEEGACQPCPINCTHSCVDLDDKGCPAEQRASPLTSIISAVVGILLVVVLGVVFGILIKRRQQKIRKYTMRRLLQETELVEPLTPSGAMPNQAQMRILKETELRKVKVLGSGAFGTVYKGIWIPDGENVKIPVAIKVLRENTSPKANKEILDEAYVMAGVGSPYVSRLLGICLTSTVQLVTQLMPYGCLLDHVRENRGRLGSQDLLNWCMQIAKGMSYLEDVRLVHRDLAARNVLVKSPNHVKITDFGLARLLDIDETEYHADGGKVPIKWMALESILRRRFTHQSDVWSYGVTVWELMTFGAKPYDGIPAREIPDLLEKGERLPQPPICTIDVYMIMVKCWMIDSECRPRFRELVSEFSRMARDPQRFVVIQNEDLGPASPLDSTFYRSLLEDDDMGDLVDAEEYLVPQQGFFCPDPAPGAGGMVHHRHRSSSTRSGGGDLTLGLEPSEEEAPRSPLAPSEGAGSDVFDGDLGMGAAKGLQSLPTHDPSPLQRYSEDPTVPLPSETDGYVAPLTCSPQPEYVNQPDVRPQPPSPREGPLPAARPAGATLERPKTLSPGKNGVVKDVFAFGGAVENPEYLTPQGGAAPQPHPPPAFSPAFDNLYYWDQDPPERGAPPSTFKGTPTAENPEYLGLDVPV

| Structure (SMILES) | Residual activity (Aurora-B; 1.0E-06 M) | Residual activity (Aurora-B; 1.0E-07 M) | Residual activity (MAP4K5; MAP4K5, 1.0E-06 M) | Residual activity (MAP4K5; MAP4K5, 1.0E-07 M) | Residual activity, RIPK2 (RIPK2; assay conc. 1.0E-06 M) | Residual activity, RIPK2 (RIPK2; assay conc. 1.0E-07 M) | Residual activity (PIM1; PIM1, 1.0E-06 M) | Residual activity (PIM1; PIM1, 1.0E-07 M) | Residual activity (DDR2; DDR2, 1.0E-06 M) | Residual activity (DDR2; DDR2, 1.0E-07 M) | MAP4K4 inhibition (MAP4K4) [%] | Residual activity (MAP4K4; MAP4K4, 1.0E-06 M) | Residual activity (MAP4K4; MAP4K4, 1.0E-07 M) | Residual activity (EPHB2; EPHB2, 1.0E-06 M) | Residual activity (EPHB2; EPHB2, 1.0E-07 M) | Residual activity (MKNK1; MKNK1, 1.0E-06 M) | Residual activity (MKNK1; MKNK1, 1.0E-07 M) | Residual activity (NIK; 1.0E-06 M) | Residual activity (NIK; 1.0E-07 M) | Residual activity (ERBB2; ERBB2, 1.0E-06 M) | other results |
| --- | --- | --- | --- | --- | --- | --- | --- | --- | --- | --- | --- | --- | --- | --- | --- | --- | --- | --- | --- | --- | --- |
| C#Cc1cc(Nc2ncnc3cc(OC)c(OC)cc23)ccc1Cl [Compound 45] | 43 % of control | 91 % of control | 22 % of control | 108 % of control | 13 % of control | 59 % of control | 38 % of control | 73 % of control | 35 % of control | 87 % of control | > 50 | 48 % of control | 87 % of control | 11 % of control | 50 % of control | 30 % of control | 63 % of control | 122 % of control | 127 % of control | 11 % of control | MAP4K5 inhibition (MAP4K5; 10 μM): > 50%; RIPK2 inhibition (RIPK2; 10 μM): > 50%; PIM1 inhibition (PIM1; 10 μM): > 50%; DDR2 inhibition (DDR2; 10 μM): > 50%; EPHB2 inhibition (EPHB2; 10 μM): > 50%; MKNK1 inhibition (MKNK1; 10 μM): > 50%; NIK inhibition (NIK; 10 μM): > 50%; ERBB2 inhibition (ERBB2; 1 μM): moderate inhibition; Residual activity (ERBB2; ERBB2, 1.0E-07 M): 44 % of control; MKNK2 inhibition (MKNK2; 10 μM): > 50%; Residual activity (MKNK2; MKNK2, 1.0E-06 M): 46 % of control; Residual activity (MKNK2; MKNK2, 1.0E-07 M): 78 % of control |
| C#Cc1cc(Nc2ncnc3cc(I)ccc23)ccc1Cl [Compound 41] | 30 % of control | 75 % of control | 70 % of control | 101 % of control | 96 % of control | 107 % of control | 71 % of control | 85 % of control | 81 % of control | 91 % of control | > 50 | 41 % of control | 73 % of control | 58 % of control | 79 % of control | 63 % of control | 79 % of control | 120 % of control | 126 % of control | 78 % of control | Aurora-B inhibition (Aurora-B; 10 μM): > 50%; Residual activity (ERBB2; ERBB2, 1.0E-07 M): 96 % of control; Residual activity (MKNK2; MKNK2, 1.0E-06 M): 74 % of control; Residual activity (MKNK2; MKNK2, 1.0E-07 M): 92 % of control |
